Results from paper PMC10552107 (ACS Omega, 2023).

Assays:
CD47/SIRPα axis = test: In vitro phagocytosis assay, BMDMs cocultured with CT26.CL25; assay type: cell-based, BALB/c mice; settings: 30 min treatment of CT26.CL25, 200 nM; comparison of the two treated groups
PD-L1 receptor = PD-L1 receptor (Mus musculus, UniProt Q9EP73); test: Membrane receptor expression analysis using flow cytometry; assay type: cell-based, murine; settings: 4T1, 500 nM, APC-conjugated PD-L1 antibody
Sequence of PD-L1 receptor (Q9EP73 19-290): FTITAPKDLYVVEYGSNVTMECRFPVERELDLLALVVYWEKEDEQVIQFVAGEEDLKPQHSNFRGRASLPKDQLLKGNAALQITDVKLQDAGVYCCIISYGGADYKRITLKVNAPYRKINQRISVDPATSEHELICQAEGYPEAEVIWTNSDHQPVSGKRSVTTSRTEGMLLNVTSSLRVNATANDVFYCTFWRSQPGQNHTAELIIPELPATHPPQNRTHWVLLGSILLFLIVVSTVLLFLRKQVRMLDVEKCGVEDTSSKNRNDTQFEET

| Substance | phagocytic index (%) (CD47/SIRPα axis) | PD-L1 expression (percentage of positive cells) (PD-L1 receptor; 1 h) [%] | PD-L1 expression (percentage of positive cells) (PD-L1 receptor; 48 h) [%] |
| --- | --- | --- | --- |
| EEELQIIQPDKSVLVAAGETATLRCTITSLFPVGPIQWFRGAGPGRVLIYNQRQGPFPRVTTVSDTTKRNNMDFSIRIGNITPADAGTYYCIKFRKGSPDDVEFKSGAGTELSVRAKP [CD47-ligand] | similar | – | – |
| D-peptide NYSKPTDRQYHF [PD-L1-ligand] | – | 3.29 | 7.82 |
